From US6756480B2, “Modulators of receptors for parathyroid hormone and parathyroid hormone-related protein” (Amgen Inc., priority 2000, dated 2004)

Assays:
[1] = system: rat osteoblast-like ROS 17/2.8 cells; test: cAMP accumulation assay (IBMX, 15 minute challenge, ELISA); type: cell-based; settings: 15 minutes
Procedure: Cultures were treated with the phosphodiesterase inhibitor IBMX and then challenged for 15 minutes with various PTH fragments. CAMP was measured by ELISA.
We tested the relative ability of PTH-Fc constructs to stimulate cAMP accumulation in rat osteoblast-like ROS 17/2.8 cells. Cultures were treated with the phosphodiesterase inhibitor IBMX to promote the accumulation of cAMP. Cultures were then challenged for 15 minutes with either vehicle (PBS), or various PTH constructs.

[2] = system: mice; settings: non-Fc conjugated peptide, stated as usual behaviour; cited from earlier work
[3] = system: mice; test: Mouse bioassay: SC injection days 0, 5, 10; clinical chemistry (calcium, AP, TRAP) and tibial pQCT; type: in vivo
Procedure: Peripheral blood was obtained daily for 3 days following single subcutaneous injections of the indicated compounds.
Peripheral quantitative computed tomography (pQCT) was performed on the proximal tibial metaphysis of mice on day 15, after injections of PTH constructs on day 0, 5 and 10.
We then tested the effects of PTH-(1-34), PTH-(1-34)-Fc, PTH-(1-31)-Fc and PTH-(1-30)-Fc in mice. Four week old male mice were injected on days 0, 5, and 10 with vehicle or with PTH fragments, by SC injection. Peripheral blood was obtained for clinical chemistry at 24, 48, and 72 h. Mice were killed on day 15, vertebrae, tibiae and femurs were harvested for histology and one tibia was collected for bone density measurements (peripheral quantitative computed tomography, pQCT). Clinical chemistry endpoints included total serum calcium, serum alkaline phosphatase (AP, a marker of osteoblast activity), and serum tartrate-resistant acid phosphatase (TRAP, a marker of osteoclast activity). For each animal, the ratio of AP:TRAP was calculated as an index of relative osteoblast activity compared to osteoclast activity. A higher AP:TRAP ratio would indicate a potentially more anabolic agent.

[4] = system: male BDF1 mice; test: Monotherapy in adult mice: twice-weekly PTH-(1-34)-Fc versus daily PTH-(1-34), tibial BMD by pQCT; type: in vivo; settings: 3 weeks, PTH-(1-34)-Fc twice weekly, various doses
Procedure: Daily PTH [PTH-(1-34)] was given at 80 μg/kg/day (20 nmol/kg/day).
Briefly, male BDF1 mice (4 months of age) were treated twice per week by subcutaneous injection with various doses of PTH-(1-34)-Fc or with vehicle (PBS). Other mice were treated daily with SC injections of PTH-(1-34) at a dose of 80 μg/kg/day (20 nmol/kg/day), a treatment regimen which is optimal for increasing bone mass in rodents (M. Gunness-Hey and J. M. Hock, Metab. Bone Dis. & Rel. Res. 5:177-181, 1984). After 3 weeks, mice were sacrificed and tibiae were analyzed for bone mineral density (BMD) via pQCT (FIG. 10).

[5] = system: Sprague Dawley (SD) rats; test: Anabolic assay: lumbar (L3) BMD by DEXA, PTH constructs with or without OPG-Fc; type: in vivo; settings: 6-month-old male SD rats, DEXA Day 7; OPG-Fc 1 mg/kg once; PTH-(1-34) 20 nMoles/kg x3; PTH-(1-34)-Fc 60 nMoles/kg once
Procedure: Briefly, 6-month-old male Sprague Dawley (SD) rats were divided into groups of 6. Baseline bone mineral density (BMD) was determined in the third lumbar vertebra (L3) of all rats by dual-energy X-ray absorptiometry (DEXA) (Day 0). Rats were then treated according to the following schedule:
Group 1: Vehicle controls (PBS, injected SC, Days 1, 3, and 5)
Group 2: OPG-Fc, single SC injection (1 mg/kg) on Day 1
Group 3: PTH-(1-34), SC injections on Days 1, 3, and 5, at 20 nMoles PTH/kg/injection. This represents an optimal anabolic PTH regimen.
Group 4: Same as group 3, but with a single OPG-Fc injection on Day 1.
Group 5: Single SC injection of PTH-(1-34)-Fc at 60 nMoles/kg, on Day 1. This represents a molar dose which is equivalent to the total dose of PTH-(1-34) received by group 3, but in a single injection.
Group 6: Same as group 5, but with a single OPG-Fc injection (SC, 1 mg/kg) on Day 1.
DEXA of the lumbar spine was performed again on Day 7 to evaluate changes in BMD. […] The anabolic effect of a single treatment with PTH-(1-34)-Fc plus OPG-Fc was greater than that induced by multiple injections of PTH-(1-34), with or without OPG-Fc co-treatment.
Normal 6 month old male rats were treated with PTH-Fc or PTH or vehicle by a single SC injection. Some rats also received a single SC injection of OPG. BMD was determined 7 days later by DEXA. Data represent means+SD, N=6 rats/group.

[6] = system: mice; test: Hypercalcemia assay: murine hypercalcemia model, single SC injection, blood ionized calcium; type: in vivo; settings: single SC injection, equimolar doses, blood ionized calcium
Procedure: Mice were challenged with vehicle (PBS, —X—), or with PTH-(1-34) (open symbols) or with PTH-(1-34)-Fc (closed symbols). Doses were 156 nmol/kg (circles), 469 nmol/kg (triangles) or 1,560 nmol/kg (squares). Data represent group means, n=6 mice/group.
We tested the potency and duration of effect of PTH-(1-34)-Fc in a murine hypercalcemia model. Briefly, mice were injected once SC with varying doses of PTH-(1-34) or PTH-(1-34)-Fc, and peripheral blood was collected from the retroorbital sinus for determination of blood ionized calcium. The half-life and the potency of PTH-(1-34)-Fc was greater than that of PTH-(1-34), as evidenced by the sustained hypercalcemic response of mice to the former agent (FIG. 4). Hypercalcemia induced by PTH-(1-34) persisted for 6-24 h, while equimolar doses of PTH-(1-34)-Fc caused more sustained hypercalcemia (48-72 h). This duration of response is consistent with greater half-life of the PTH-(1-34)-Fc construct vs. PTH-(1-34).

human PTH(1-34) [PTH-(1-34), reference compound]
potency in cAMP accumulation relative to PTH-(1-31)-Fc and PTH-(1-30)-Fc [1]: slightly more potent
duration of transient increase in serum calcium normally caused [2]: 12 h
calculated AP:TRAP ratio ([3]; 300 nmoles/kg): unchanged
serum AP (osteoblast marker) ([3]; 300 nmoles/kg (given for PTH-(1-34)-Fc), 72 h): unchanged
serum calcium ([3]; 300 nmoles/kg SC (equimolar), 24, 48, 72 h): not significantly different
bone mineral density (proximal tibial metaphysis) ([3]; 300 nmoles/kg on day 0, 5, 10, pQCT day 15): modest (non-significant) anabolic effect
serum TRAP (osteoclast marker) ([3]; mice, after single SC injection): not significantly changed
cancellous BMD compared to vehicle ([4]; PTH-(1-34) daily 80 μg/kg/day): significantly increased
total tibial BMD compared to vehicle ([4]; PTH-(1-34) daily 80 μg/kg/day): significantly increased
cortical BMD in the tibia ([4]; PTH-(1-34) daily): not significantly enhanced
BMD in L3 compared to PBS-treated rats [5]: increased modestly
duration of hypercalcemia [6]: 6 to 24 h
